Measurements published in patent US20130237452A1, “Screening method for selecting plants that show a reduced wound-induced surface discolouration” (RIJK ZWAAN ZAADTEELT EN ZAADHANDEL B.V., priority 2006, published 2013).
“Also recorded” adds a separate entry of the source.

Key:
lettuce leaf discs = test: leaf disc pinking assay: wound-induced pink discolouration between wetted filter papers; assay type: cell-based; settings: for concentration at which the pink discolouration was completely inhibited: applied during the assay, 5° C. for 7 days; for effect on formation of the pink dye (pinking response): applied during the reaction
Experimental: A phenotypic assay was developed in which leaf discolouration of lettuce induced by wounding can readily be assessed. This approach allows young plant screening for discolouration. Leaf discs of 5 mm diameter were taken from young or mature plants and placed between wetted filter papers in a tray. The system was incubated at 5° C. for 7 days. During the incubation a pink dye developed at the wound site of the leaf disc which became clearly visible as a printed circle on the filter paper (FIG. 2).

[1] = treatment of the formed pink dye after the wound response was completed; parameters: species or system lettuce; settings: added after the wound response was completed; 0-10 mM series for L-cysteine
Experimental: (§1) As L-cysteine is known to react with o-quinones, which are PPO products, by converting them back into colourless diphenols, the effects of L-cysteine on the pink dye coming from lettuce leaf discs was determined. In parallel the effect of L-cysteine was determined on the melanin formation upon incubation with L-DOPA. Leaf discs were taken and incubated according to the procedures described above. After the wound response was completed, a concentration series of L-cysteine was added to the leaf disc and the change in colour was monitored.

leaf discs of lettuce = test: chlorogenic acid assay on leaf discs; assay type: cell-based
Experimental: Leaf discs of lettuce were incubated with 10 mM chlorogenic acid on filter paper.

lettuce seeds = test: catechol assay on seeds
Experimental: Lettuce seeds were incubated with 0, 100, 250, 500, 750 and 1000 mg/L catechol.

[2] = treatment of melanin formed in the L-DOPA assay after the response was completed; parameters: species or system lettuce; settings: added after the response was completed; 0-10 mM series
Experimental: as §1

seeds of eggplant = test: L-DOPA assay on seeds
Experimental: (§2) Seeds of lettuce and eggplant were incubated with 0, 2.5 and 5 mM L-DOPA. […] The response is PPO-dependent because it can be inhibited with L-cysteine.

seeds of lettuce = test: L-DOPA assay on seeds
Experimental: as §2

PPO = test: L-DOPA leaf disc assay: black discolouration (melanin) at wound surface; assay type: cell-based, lettuce
Experimental: In addition to assays which address wound-induced discolouration in a broad sense, the method according to this invention also allows to screen in a more specific manner for mutants which have a reduced PPO activity. A phenotypic assay which is indicative for PPO activity was developed by using leaf discs which were incubated in the presence of 1.5 mM L-DOPA. […] Furthermore, it was shown that the reaction can be inhibited by adding 1 mM L-cysteine during the reaction (FIG. 5). Therefore, this assay enabled the identification of mutants which are modified in the ability to mount a PPO activity at a wound surface of a leaf. The response of lettuce leaf discs to the presence of L-DOPA can be observed both in solution as well as between wetted filter papers as shown in FIG. 13.

[3] = test system: lettuce outer leaf midrib tissue discs; test: midrib disc / cut leaf browning assay; assay type: cell-based
Experimental: A further embodiment of this invention is based on the following experiment. Parts of a lettuce leaf of a head are produced by cutting and incubated at 16° C. in air. As a response the wound surface turns brown after approximately 4 days. Especially at the wound surface of the main vein the browning can clearly be observed. Furthermore, the browning reaction can also be observed at the whole plant level upon damaging leaves by cutting or abrasion. Lettuce plants were grown to maturity and parts of outer leaves were taken by cutting discs from the rib tissue. The discs were incubated on wetted filter paper at 16° C. After approximately 72 hours, the wound surface had turned brown.

[4] = test system: field-grown lettuce plant showing severe pinking symptoms; test: pinking of leaf discs from field-grown lettuce; settings: 1 mM, approximately 30 minutes at room temperature
Experimental: This is typically observed when plants have been stressed, for example by conditions of severe water logging. The leaf was used to prepare leaf discs which were incubated immediately by 1 mM L-cysteine.

[5] = test system: germinated seeds of lettuce; test: L-DOPA assay on germinated seeds
Experimental: Germinated seeds of lettuce were incubated with L-DOPA. […] This colour reaction can be used for screening seeds that show a reduced discolouration.

O=CC=Cc1ccccc1 [cinnamaldehyde]
concentration at which the pink discolouration was completely inhibited (lettuce leaf discs): ≥ 0.01%
effect on formation of the pink dye (pinking response) (lettuce leaf discs): inhibited

O=C1O[C@H]([C@@H](O)CO)C(O)=C1O [ascorbic acid]
effect on the already formed pink dye [1]: convert the pink dye into a colourless compound

O=C(/C=C/c1ccc(O)c(O)c1)O[C@@H]1C[C@](O)(C(=O)O)C[C@@H](O)[C@H]1O [chlorogenic acid]
discolouration of discs on incubation with the substrate (leaf discs of lettuce; 10 mM on filter paper): browning

Oc1ccccc1O [catechol]
colour response of seeds with the substrate (lettuce seeds; 0, 100, 250, 500, 750 and 1000 mg/L): concentration dependent colour response

N[C@@H](CCC(=O)N[C@@H](CS)C(=O)NCC(=O)O)C(=O)O [glutathion]
effect on the already formed pink dye [1]: convert the pink dye into a colourless compound

N[C@@H](CS)C(=O)O [L-cysteine]
concentration at which the pink discolouration was completely inhibited (lettuce leaf discs): ≥ 0.001%
effect on formation of the pink dye (pinking response) (lettuce leaf discs): strongly suppressed
effect on the already formed pink dye [1]: converting the pink dye back into a colourless compound; also recorded: converted into a colourless compound
effect on already formed black melanin [2]: not affected
effect on L-DOPA colour response of seeds (seeds of eggplant): inhibited
effect on L-DOPA colour response of seeds (seeds of lettuce): inhibited
effect on black L-DOPA discolouration (PPO; applied simultaneously with L-DOPA): completely inhibited
effect on browning response of midrib discs ([3]; 10 mM, 16° C., approximately 72 hours): inhibited
effect on wound-induced browning reactions (cut leaf parts, whole plant) ([3]; 16° C. in air, concentration not given): completely be inhibited
effect on pink discolouration of field-grown leaf material [4]: pink discolouration disappeared; also recorded: eliminated
effect on chlorogenic acid induced colour (leaf discs of lettuce; added to discs incubated with 10 mM chlorogenic acid): the colour disappeared again
effect on catechol colour response of seeds (lettuce seeds): inhibited

CC(C)C[C@H](N)C(=O)O [L-leucine]
effect on formation of the pink dye (pinking response) (lettuce leaf discs): did not show any effect

N[C@@H](Cc1ccc(O)c(O)c1)C(=O)O [L-DOPA, L-3,4-dihydroxyphenylalanine]
colour reaction of seed coat and root zone with the substrate [5]: show a colour reaction
colour reaction of seeds with the substrate (seeds of eggplant; 0, 2.5 and 5 mM): concentration dependent
colour reaction of seeds with the substrate (seeds of lettuce; 0, 2.5 and 5 mM): concentration dependent
discolouration at the wound surface on incubation with the substrate (PPO; 1.5 mM L-DOPA): dark brown to black discolouration

C[C@H](N)C(=O)O [L-alanine]
effect on formation of the pink dye (pinking response) (lettuce leaf discs): did not show any effect
